# Experimental data from article PMC3362486 (Chemico-Biological Interactions, 2012).
# What was measured:
# [1] = molecular target: T1, CYP2A6 (Homo sapiens, UniProt P11509); format: biochemical
# T1 sequence (P11509 1-494): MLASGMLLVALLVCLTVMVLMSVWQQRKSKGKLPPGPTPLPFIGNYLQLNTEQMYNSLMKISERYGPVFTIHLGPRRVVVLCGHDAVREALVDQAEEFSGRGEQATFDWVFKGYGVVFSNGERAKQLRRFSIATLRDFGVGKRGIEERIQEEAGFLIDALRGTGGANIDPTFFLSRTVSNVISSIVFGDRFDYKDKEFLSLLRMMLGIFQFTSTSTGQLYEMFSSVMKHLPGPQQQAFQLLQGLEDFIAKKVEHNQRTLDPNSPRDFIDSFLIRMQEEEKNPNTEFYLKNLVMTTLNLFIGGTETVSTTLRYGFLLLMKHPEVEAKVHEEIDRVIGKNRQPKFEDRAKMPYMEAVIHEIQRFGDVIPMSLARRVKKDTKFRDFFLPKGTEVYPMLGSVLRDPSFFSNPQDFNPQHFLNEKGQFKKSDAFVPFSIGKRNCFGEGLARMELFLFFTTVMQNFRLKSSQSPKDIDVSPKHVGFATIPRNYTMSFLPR
# [2] = molecular target: T1, CYP2A6; test: Irreversibility of CYP2A6 inactivation; format: biochemical
# [3] = molecular target: T1, CYP2A6; test: CYP2A6 inactivation kinetics and partition ratio; format: biochemical
# [4] = molecular target: T2, CYP2A13 (Homo sapiens, UniProt Q16696); test: biochemical
# T2 sequence (Q16696 1-494): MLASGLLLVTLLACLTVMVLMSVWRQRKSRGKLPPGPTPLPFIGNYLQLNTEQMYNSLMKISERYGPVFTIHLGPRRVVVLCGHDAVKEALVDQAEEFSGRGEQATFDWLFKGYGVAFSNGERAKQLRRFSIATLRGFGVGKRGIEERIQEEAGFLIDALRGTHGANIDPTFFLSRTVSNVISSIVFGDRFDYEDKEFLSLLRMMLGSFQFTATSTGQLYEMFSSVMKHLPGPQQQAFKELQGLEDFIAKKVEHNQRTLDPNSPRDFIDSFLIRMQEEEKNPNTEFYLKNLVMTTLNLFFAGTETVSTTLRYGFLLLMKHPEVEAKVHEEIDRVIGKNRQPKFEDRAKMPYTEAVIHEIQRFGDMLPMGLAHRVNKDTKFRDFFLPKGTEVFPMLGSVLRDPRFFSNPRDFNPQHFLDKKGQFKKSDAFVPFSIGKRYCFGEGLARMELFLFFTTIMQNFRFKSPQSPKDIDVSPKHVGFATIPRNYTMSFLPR
# [5] = molecular target: T2, CYP2A13; test: in vitro; format: biochemical; settings: for activity at 10 min, 20 µM: human, pH 7.4, probe coumarin (7-hydroxylation), 20 μM in the secondary reaction
# [6] = molecular target: T1, CYP2A6; test: biochemical; format: biochemical
# [7] = molecular target: T1, CYP2A6; test: Effect of NADPH and trapping agents; format: biochemical; settings: for Percent Activity Remaining (10 min relative to 0 min): menthofuran 5 μM or β-nicotyrine 20 μM
# [8] = molecular target: T1, CYP2A6; settings: cited from earlier work
# [9] = molecular target: T2, CYP2A13; settings: cited from earlier work
Inactivation of CYP2A6 (in words) ([1]; inhibitor 20 μM with NADPH),Inactivation of CYP2A13 (in words) ([5]; inhibitor 20 μM with NADPH),"Inhibition of CYP2A6, times less potent than menthofuran and β-nicotyrine ([6]; comparison of KI values) [times]",SMILES,"Loss of CYP2A6 coumarin 7-hydroxylation activity ([1]; inhibitor 20 μM, in the presence of NADPH) [%]",Reversibility of CYP2A6 inactivation upon removal of unbound small molecules [2],"KI for inactivation of CYP2A6, fold lower than that of β-nicotyrine [3] [fold]","Partition ratio, times higher than for β-nicotyrine-mediated inactivation ([3]; calculated partition ratio)",Ki [4] [nM],"activity at 10 min, 20 µM [5] [%]",Loss of CYP2A13 activity ([5]; inhibitor 20 μM with NADPH),"Loss of CYP2A13-catalyzed coumarin 7-hydroxylation at higher concentration ([5]; menthofuran 200 μM or 30 min incubations, data not shown)",Ki [6] [nM],Percent Activity Remaining (10 min relative to 0 min) ([7]; inhibitor + NADPH + glutathione (10mM)) [%],Percent Activity Remaining (10 min relative to 0 min) ([7]; inhibitor + NADPH + semicarbazide (10mM)) [%],Percent Activity Remaining (10 min relative to 0 min) ([7]; inhibitor + NADPH) [%],"Loss of CYP2A6 enzyme activity ([7]; menthofuran 5 μM or β-nicotyrine 20 μM with NADPH, 10 min)",Inhibition of CYP2A6 (in words) [8],"Catalytic efficiency (kcat/Km) of metabolic activation, CYP2A13 versus CYP 2A6 [9] [fold]"
–,–,–,"Cc1coc2c1CC[C@@H](C)C2 [Menthofuran, 3,6R-dimethyl-4,5,6,7-tetrahydro-1-benzofuran]",95,not reversible,~50,~ 3.5 times,1240 ± 260,91 ± 5,no significant loss,no loss,290 ± 50,48,40,43,about 60%,–,–
no indication,no indication,100,"CC(C)[C@@H]1CC[C@@H](C)C[C@H]1O [Menthol, (1R,2S,5R)-2-isopropyl-5-methylcyclohexanol]",–,–,–,–,–,87 ± 11,–,–,110000 ± 10700,–,–,–,–,weak inhibitor,–
–,–,–,"CN(CCCC(=O)c1cccnc1)N=O [NNK, 4-(methylnitrosamino)-1-(3-pyridyl)-1-butanone]",–,–,–,–,–,–,–,–,–,–,–,–,–,–,200
